We go through ten compounds from patent publication US20230000995A1, “DOLASTATIN 10 ANALOG” (Ariel Scientific Innovations Ltd., priority 2020, published 2023).

Read-outs that look alike come from different tables or passages of the source. Where a SMILES comes first, the peptide text is derived from it. [ ]: non-standard residue; d: D form. Dolaproine = CO[C@@H]([C@@H]1CCCN1)[C@@H](C)C(=O)O; Dil = CC[C@H](C)[C@H](NC)[C@@H](CC(=O)O)OC; Phe(ol) = N[C@H](CO)Cc1ccccc1; NMeV = CN[C@H](C(=O)O)C(C)C

The test system of data set [1] is WM266-4 (malignant melanoma cell line). Kind of data set: In vitro cytotoxicity, XTT assay, 8 days incubation. The following applies: read-out: IC50 MW266 (8 days). It counts as cell-based. An excerpt: (§1) The exemplary dolastatin 10 analog, Dolas-Ol, was subjected to an in vitro assay to test its cytotoxicity towards two cancerous cell lines: WM266-4 (malignant melanoma cell line)) and HCT116 (human colon cancer cell line). The study was design to assess the activity of a dolastatin 10 analog, according to some embodiments of the present invention, compared to other dolastatin 10 derivatives known in the art, Auristatin F, Auristatin F-Ol and Dolastatin-CO2H.
(§2) All samples contained DMSO at final concentration<0.05%. Cells cultures were initiated in microplate wells at a concentration of 2-4×10^4 cells/well and the cells were allowed to adhere for 24 h incubation period. At this time the cells were washed, fresh medium containing different concentrations of the tested substances were added and the cells were incubated for additional 8 days. The medium was then removed, all the wells were washed with PBS and cultured for 24 hrs in fresh medium without drugs. The cells were washed again and given a fresh medium containing the XTT reagent and re-incubated for 2-4 h. Absorbence in the wells was measured with a TECAN Infinite M200 ELISA reader at both 480 and 680 nm e, the latter being the background absorbance. The absorbencies were normalized to the absorbance of cells grown in medium and solvent. All the tests were repeated three times in quadruplicates.
(Tetrazolium assays rely on reduction of a dye to a coloured formazan, in cell work by metabolically active cells.)

The subject of data set [2] is HCT116 (human colon cancer cell line). The data set is described as above. It counts as cell-based. Particulars: read-out: IC50 HC116 (8 days).
Source text: as §1, §2

Data set [3] concerns L1210 murine leukemia cells. The following applies: L1210 murine leukemia cells in culture; read-out: IC50 value for cell growth; cited from earlier work.
Data set [4] has as its system tubulin. The following applies: purified tubulin in glutamate; read-out: IC50 for the polymerization of purified tubulin in glutamate; cited from earlier work.
The subject of data set [5] is tubulin. Particulars: cited from earlier work.
Data set [6] deals with cell lines with overexpressed SSTR2 versus HEK. Particulars: 1 μM; SSTR2 overexpressing cell lines versus HEK with low expression. On the procedure:
HC116, H1299 and TRAMP C2 cells that overexpressed SSTR2 were incubated for 3 hours with 1 μM doses of the conjugates, according to some embodiments of the present invention, and then the cells were washed and proceed for incubation for the following 8 days. At the end of incubation for 8 days, the metabolic activities of cells were measured using the XTT assay.

Data set [7] relates to HEK (low SSTR2 expression). Kind of data set: Growth inhibition by Dolas-Ol conjugates, XTT assay, negative control cells. Type of data set: cell-based. Particulars: 1 μM, 3 hours exposure, then 8 days. On the procedure: (§3) Table 2 presents the growth inhibition values of octreotide amide, conjugates 8b-d in the cell cultures calculated according to the concentration of 1 μM. The calculation for all values is provided relative to control 100% of GI (for all values, p<0.01).

The test system of data set [8] is H1299 cells that overexpressed SSTR2. Kind of data set: Growth inhibition by Dolas-Ol conjugates, XTT assay. It counts as cell-based. Particulars: 1 μM, 3 hours exposure, then 8 days. On the procedure: as §3
Data set [9] deals with TRAMP C2 cells that overexpressed SSTR2. Described as above. It counts as cell-based. The following applies: 1 μM, 3 hours exposure, then 8 days. How it is done:
as §3

In data set [10] the test system is HC116 cells that overexpressed SSTR2. The description is as above. It counts as cell-based. Particulars: 1 μM, 3 hours exposure, then 8 days. On the procedure:
as §3

A word on the IC50: it is the midpoint of a concentration-inhibition curve.

As to “(2S)-2-((S)-2-(dimethylamino)-3-methylbutanamido)-N-((3R,4S,5S)-1-((2S)-2-((1R,2R)-3-((1-(5-(hydroxymethyl)thiazol-2-yl)-2-phenylethyl)amino)-1-methoxy-2-methyl-3-oxopropyl)pyrrolidin-1-yl)-3-methoxy-5-methyl-1-oxoheptan-4-yl)-N,3-dimethylbutanamide [Dolas-O1]”, the IC50 stood at 2.24 ± 0.03 nM in data set [1] and 3.67 ± 0.03 nM in data set [2].

On to `CC[C@H](C)[C@@H]([C@@H](CC(=O)N1CCC[C@H]1[C@H](OC)[C@@H](C)C(=O)N[C@@H](Cc1ccccc1)c1nccs1)OC)N(C)C(=O)[C@@H](NC(=O)[C@H](C(C)C)N(C)C)C(C)C` [Dolastatin 10], for which the IC50 was 0.5 nM in data set [3] and 1200 nM in the data set with tubulin [4]. Further, the “inhibition of the binding of radiolabeled vinblastine and vincristine to tubulin” value in the data set with tubulin [5] is “strongest inhibitor”.

In the case of `CO[C@@H](/C(C)=C/C=C/C(C)=C/c1coc(C)n1)[C@@H](C)[C@@H]1C[C@H](O)[C@@]2(C)O[C@@H]2/C=C/[C@@H](C)[C@H]2C[C@H](CC(=O)O2)C[C@@H]2O[C@H]2C(=O)O1` [rhizoxin], the IC50 in [3] was 1 nM; in the data set on tubulin [4] it was 6800 nM.

As to `COc1cc2cc(c1Cl)N(C)C(=O)C[C@H](OC(=O)[C@H](C)N(C)C(C)=O)[C@]1(C)O[C@H]1[C@H](C)[C@@H]1C[C@@](O)(NC(=O)O1)[C@H](OC)/C=C/C=C(\C)C2` [maytansine], the IC50 in data set [3] is 0.5 nM; with tubulin [4], 3500 nM.

`CC[C@H](C)[C@@H]([C@@H](CC(=O)N1CCC[C@H]1[C@H](OC)[C@@H](C)C(=O)N[C@H](CO)Cc1ccccc1)OC)N(C)C(=O)[C@@H](NC(=O)[C@@H](NC)C(C)C)C(C)C` [Auristatin F- O1] (H-[NMeV]V[Dil][Dolaproine][Phe(ol)]): the IC50 came to 58.82 ± 0.05 nM in data set [1] (Homo sapiens, WM 266-4, 192 h) and 29.71 ± 0.04 nM in data set [2] (Homo sapiens, HCT-116, 192 h).

On to `CC[C@H](C)[C@@H]([C@@H](CC(=O)N1CCC[C@H]1[C@H](OC)[C@@H](C)C(=O)N[C@@H](Cc1ccccc1)C(=O)O)OC)N(C)C(=O)[C@@H](NC(=O)[C@@H](NC)C(C)C)C(C)C` (H-[NMeV]V[Dil][Dolaproine]F-OH), for which the IC50 turned out to be 15.59 ± 0.03 nM in data set [1] (Homo sapiens, WM 266-4, 192 h) and 18.27 ± 0.06 nM in data set [2] (Homo sapiens, HCT-116, 192 h).

Regarding `CC[C@H](C)[C@@H]([C@@H](CC(=O)N1CCC[C@H]1[C@H](OC)[C@@H](C)C(=O)N[C@@H](Cc1ccccc1)c1nc(C(=O)O)cs1)OC)N(C)C(=O)[C@@H](NC(=O)[C@H](C(C)C)N(C)C)C(C)C` [Dolastatin- CO2H], the IC50 is 31.75 ± 0.02 nM in data set [1] (Homo sapiens, WM 266-4, 192 h) and 52.5 ± 0.03 nM in data set [2] (Homo sapiens, HCT-116, 192 h).

For `CC[C@]1(O)C[C@@H]2CN(CCc3c([nH]c4ccccc34)[C@@](C(=O)OC)(c3cc4c(cc3OC)N(C)[C@H]3[C@@](O)(C(=O)OC)[C@H](OC(C)=O)[C@]5(CC)C=CCN6CC[C@]43[C@@H]65)C2)C1` [vinblastine], the IC50 in data set [3] is 20 nM; in the data set on tubulin [4] it was […].

As for `C=C(C)[C@@H]1NC(=O)[C@@H](NC)[C@@H](O)c2cc(Cl)c(O)c(c2)O[C@](C)(CC)[C@@H](C(=O)N2CC=C[C@H]2C(=O)N/C(C(=O)N/C(=C/C(=O)O)C(=O)O)=C(\C)CC)NC1=O` [phomopsin A], the figures for the IC50 (in data set [3]; with tubulin [4]) were 7000 nM and 1400 nM, respectively.

Regarding `C[C@@H](O)[C@H](NC(=O)[C@@H]1CSSC[C@H](NC(=O)[C@H](N)Cc2ccccc2)C(=O)N[C@@H](Cc2ccccc2)C(=O)N[C@H](Cc2c[nH]c3ccccc23)C(=O)N[C@@H](CCCCN)C(=O)N[C@@H]([C@@H](C)O)C(=O)N1)C(N)=O` [Octreotide amide], the “cytotoxicity (in words)” value in data set [6] is “not cytotoxic”. Moreover, in [7], the “growth inhibition, HEK as negative control” value stood at 7.9%. The “growth inhibition, H1299-8 days” value in [8] is on record as 8.4%. Also, the “growth inhibition, TRAMP C2-8 days” value in data set [9] is listed as 6.5%. In addition, the “growth inhibition, HC116-8 days” value in data set [10] came to 6.1%.
